Test results reported in the OligoGym collection.
HELM strings list units from the 5' end as sugar, base in round brackets, then linkage (d deoxyribose, r ribose, m 2'-O-methyl, p phosphodiester). Strings are as the collection lists them; they lack the last nucleoside at the 3' end of the tested compound. [moe] = 2'-O-(2-methoxyethyl) (MOE); [sp] = phosphorothioate linkage; [m5C] = 5-methylcytosine

Biological target: UBE3A-ATS
Experiment: mouse, dose not given
Settings: ASO

Substance | 3 h FOB score [score 0-7]
RNA1{[moe](G)[sp].[moe](G)p.[moe](T)p.[moe]([m5C])p.[moe](A)[sp].d(T)[sp].d([m5C])[sp].d(T)[sp].d([m5C])[sp].d(G)[sp].d(G)[sp].d(G)[sp].d(T)[sp].[moe](A)p.[moe](T)p.[moe](A)[sp].[moe](T)}$$$$ (last 3' nucleoside missing) | 6
RNA1{[moe](G)[sp].[moe](G)p.[moe](T)p.[moe]([m5C])p.[moe](A)p.[moe](A)p.d([m5C])[sp].d([m5C])[sp].d(A)[sp].d(A)[sp].d(T)[sp].d(T)[sp].d(T)[sp].d(G)[sp].d([m5C])[sp].d(T)[sp].[moe](A)p.[moe](T)[sp].[moe](T)}$$$$ (last 3' nucleoside missing) | 5
RNA1{[moe](G)[sp].[moe](G)p.[moe](T)p.[moe]([m5C])p.[moe](A)p.[moe](T)[sp].d([m5C])[sp].d(T)[sp].d([m5C])[sp].d(G)[sp].d(G)[sp].d(G)[sp].d(T)[sp].d(A)[sp].[moe](T)p.[moe](A)[sp].[moe](T)}$$$$ (last 3' nucleoside missing) | 6
RNA1{[moe](G)[sp].[moe](G)p.[moe](T)p.[moe]([m5C])p.[moe](A)p.[moe](T)p.d([m5C])[sp].d(T)[sp].d([m5C])[sp].d(G)[sp].d(G)[sp].d(G)[sp].d(T)[sp].d(A)[sp].d(T)[sp].d(A)[sp].[moe](T)p.[moe](A)[sp].[moe](A)}$$$$ (last 3' nucleoside missing) | 6
RNA1{[moe](G)[sp].[moe](G)p.[moe](T)p.[moe]([m5C])p.[moe](A)p.d(A)[sp].d([m5C])[sp].d([m5C])[sp].d(A)[sp].d(A)[sp].d(T)[sp].d(T)[sp].d(T)[sp].d(G)[sp].d([m5C])[sp].[moe](T)p.[moe](A)p.[moe](T)[sp].[moe](T)}$$$$ (last 3' nucleoside missing) | 3.8
RNA1{[moe](G)[sp].[moe](G)p.[moe](T)p.[moe]([m5C])p.[moe](A)p.d(G)[sp].d(A)[sp].d(T)[sp].d(T)[sp].d([m5C])[sp].d([m5C])[sp].d(T)[sp].d(A)[sp].d(A)[sp].d(A)[sp].[moe](T)p.[moe](A)p.[moe]([m5C])[sp].[moe](G)}$$$$ (last 3' nucleoside missing) | 1
RNA1{[moe](G)[sp].[moe](G)p.[moe](T)p.[moe]([m5C])p.[moe](A)p.d(T)[sp].d([m5C])[sp].d(T)[sp].d([m5C])[sp].d(G)[sp].d(G)[sp].d(G)[sp].d(T)[sp].d(A)[sp].d(T)[sp].[moe](A)p.[moe](T)p.[moe](A)[sp].[moe](A)}$$$$ (last 3' nucleoside missing) | 4.2
RNA1{[moe](G)[sp].[moe](G)p.[moe](T)p.[moe]([m5C])p.[moe]([m5C])p.d(A)[sp].d(T)[sp].d(A)[sp].d(G)[sp].d(A)[sp].d(T)[sp].d(G)[sp].d(T)[sp].d([m5C])[sp].d(A)[sp].[moe](G)p.[moe](T)p.[moe](T)[sp].[moe](A)}$$$$ (last 3' nucleoside missing) | 5.5
RNA1{[moe](G)[sp].[moe](G)p.[moe](T)p.[moe]([m5C])p.d(A)[sp].d(A)[sp].d([m5C])[sp].d([m5C])[sp].d(A)[sp].d(A)[sp].d(T)[sp].d(T)[sp].d(T)[sp].d(G)[sp].[moe]([m5C])p.[moe](T)p.[moe](A)p.[moe](T)[sp].[moe](T)}$$$$ (last 3' nucleoside missing) | 4.7
RNA1{[moe](G)[sp].[moe](G)p.[moe](T)p.[moe]([m5C])p.d(A)[sp].d(T)[sp].d([m5C])[sp].d(T)[sp].d([m5C])[sp].d(G)[sp].d(G)[sp].d(G)[sp].d(T)[sp].d(A)[sp].[moe](T)p.[moe](A)p.[moe](T)p.[moe](A)[sp].[moe](A)}$$$$ (last 3' nucleoside missing) | 5.5
RNA1{[moe](G)[sp].[moe](G)p.[moe]([m5C])p.[moe](A)p.[moe](A)p.d(G)[sp].d([m5C])[sp].d(A)[sp].d(A)[sp].d([m5C])[sp].d(T)[sp].d(A)[sp].d(T)[sp].d(G)[sp].d(G)[sp].[moe](G)p.[moe](T)p.[moe](G)[sp].[moe](G)}$$$$ (last 3' nucleoside missing) | 6.2
RNA1{[moe](G)[sp].[moe](G)p.[moe]([m5C])p.[moe](A)p.[moe](A)p.d(T)[sp].d(G)[sp].d(G)[sp].d(A)[sp].d([m5C])[sp].d(T)[sp].d(T)[sp].d(A)[sp].d(G)[sp].d(T)[sp].[moe](A)p.[moe]([m5C])p.[moe](A)[sp].[moe]([m5C])}$$$$ (last 3' nucleoside missing) | 2.3
RNA1{[moe](G)[sp].[moe](G)p.[moe]([m5C])p.[moe](A)p.[moe](G)p.d([m5C])[sp].d(T)[sp].d([m5C])[sp].d([m5C])[sp].d(T)[sp].d(G)[sp].d(A)[sp].d([m5C])[sp].d(A)[sp].d(A)[sp].[moe](A)p.[moe](T)p.[moe](T)[sp].[moe](A)}$$$$ (last 3' nucleoside missing) | 4
RNA1{[moe](G)[sp].[moe](G)p.[moe]([m5C])p.[moe](T)p.[moe](T)p.d(T)[sp].d(A)[sp].d(T)[sp].d(A)[sp].d([m5C])[sp].d(T)[sp].d(T)[sp].d(T)[sp].d(A)[sp].d([m5C])[sp].[moe]([m5C])p.[moe]([m5C])p.[moe](A)[sp].[moe](A)}$$$$ (last 3' nucleoside missing) | 1
RNA1{[moe](G)[sp].[moe](G)p.[moe]([m5C])p.[moe]([m5C])p.[moe](T)p.d(G)[sp].d(A)[sp].d([m5C])[sp].d(T)[sp].d(A)[sp].d(G)[sp].d(G)[sp].d([m5C])[sp].d(A)[sp].d(T)[sp].[moe](T)p.[moe](G)p.[moe](A)[sp].[moe](A)}$$$$ (last 3' nucleoside missing) | 3
RNA1{[moe](G)[sp].[moe](T)p.[moe](A)p.[moe](A)p.[moe](G)p.d(A)[sp].d(G)[sp].d(T)[sp].d(T)[sp].d(A)[sp].d(G)[sp].d([m5C])[sp].d(T)[sp].d(A)[sp].d(T)[sp].[moe](T)p.[moe]([m5C])p.[moe]([m5C])[sp].[moe]([m5C])}$$$$ (last 3' nucleoside missing) | 4
RNA1{[moe](G)[sp].[moe](T)p.[moe](A)p.[moe](A)p.[moe](G)p.d(T)[sp].d(A)[sp].d(T)[sp].d(A)[sp].d(G)[sp].d(A)[sp].d(T)[sp].d(G)[sp].d([m5C])[sp].d([m5C])[sp].[moe](T)p.[moe]([m5C])p.[moe](T)[sp].[moe]([m5C])}$$$$ (last 3' nucleoside missing) | 3.8
RNA1{[moe](G)[sp].[moe](T)p.[moe](A)p.[moe](A)p.[moe](T)p.d(G)[sp].d(A)[sp].d(T)[sp].d(T)[sp].d(T)[sp].d(G)[sp].d([m5C])[sp].d([m5C])[sp].d([m5C])[sp].d(T)[sp].[moe]([m5C])p.[moe]([m5C])p.[moe](T)[sp].[moe](A)}$$$$ (last 3' nucleoside missing) | 6
RNA1{[moe](G)[sp].[moe](T)p.[moe](A)p.[moe](G)p.[moe](A)p.d(T)[sp].d(A)[sp].d(A)[sp].d([m5C])[sp].d(T)[sp].d(T)[sp].d(T)[sp].d(A)[sp].d([m5C])[sp].d([m5C])[sp].[moe](T)p.[moe](T)p.[moe](G)[sp].[moe](A)}$$$$ (last 3' nucleoside missing) | 0
